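Test compounds were applied to cells in 96-well plates for 48 hours at 5 doses. GI50 = concentration required for 50% inhibition of growth. TGI is the concentration that stops growth completely.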
Assays:
Experiment in all cases: NCI-60 cell line screen, 48 h
NCI-H522 lung = tested on: NCI-H522 lung
A498 renal = tested on: A498 renal
SF-539 CNS = tested on: SF-539 CNS
A549 NSCLC = tested on: A549 NSCLC
M14 melanoma = tested on: M14 melanoma
HOP-62 NSCLC = tested on: HOP-62 NSCLC
SNB-75 CNS = tested on: SNB-75 CNS
HOP-92 NSCLC = tested on: HOP-92 NSCLC
SW-620 colon = tested on: SW-620 colon
SNB-19 CNS = tested on: SNB-19 CNS

Row | Compound | TGI (NCI-H522 lung) [µM] | TGI (A498 renal) [µM] | TGI (SF-539 CNS) [µM] | TGI (A549 NSCLC) [µM] | TGI (M14 melanoma) [µM] | TGI (HOP-62 NSCLC) [µM] | TGI (SNB-75 CNS) [µM] | TGI (HOP-92 NSCLC) [µM] | TGI (SW-620 colon) [µM] | TGI (SNB-19 CNS) [µM] | GI50 (NCI-H522 lung) [µM]
1 | CC1=NN(C(=O)CSc2nc3ccc(I)cc3c(=O)n2Cc2ccccc2)C(=O)C1 | 21.2 | 83.7 | > 100 | > 100 | > 100 | > 100 | 85.3 | 70.7 | > 100 | > 100 | –
2 | O=C(CC(=O)Nc1ccccc1)N/N=C/c1cc(N=Nc2ccc(Br)cc2)ccc1O | – | – | > 10 | > 10 | > 10 | > 10 | > 10 | > 10 | > 10 | – | –
3 | Brc1ccc(-c2cn3ccncc3n2)cc1 | > 100 | > 100 | > 100 | > 100 | > 100 | > 100 | > 100 | > 100 | – | > 100 | –
4 | COc1nc(N)c(N=CC(OC(C)=O)C(OC(C)=O)C(COC(C)=O)OC(C)=O)c(=O)n1C (stereo not given) | > 100 | > 100 | > 100 | > 100 | > 100 | > 100 | > 100 | > 100 | > 100 | > 100 | –
5 | COc1ccc(N=C2C(=Nc3ccc(OC)cc3)N(c3ccccc3)C(=S)N2N=C=C2Sc3ccccc3N2C)cc1 | > 100 | – | > 100 | > 100 | > 100 | > 100 | – | > 100 | > 100 | > 100 | –
6 | Cc1cc(O)c(C(C)C)cc1C1(c2cc(C(C)C)c(O)cc2C)OC(=O)c2ccccc21 | 4.48 | 7.1 | 3.72 | 12.8 | 3.15 | 8.75 | 6.16 | 7.78 | 4.57 | > 35.1 | –
7 | O=C(/C=C/c1csc(-c2ccccc2)n1)NCc1ccc(C(=O)NCc2ccccc2)cc1 | > 100 | > 100 | > 100 | > 100 | > 100 | 32.8 | 60.5 | > 100 | > 100 | 88.7 | –
8 | COc1cc(/C=C(/C#N)C(N)=O)ccc1O | > 100 | > 100 | > 100 | > 100 | – | > 100 | > 85.6 | > 100 | > 100 | > 100 | –
9 | Cc1ccc(N=Nc2c(O)c(C(=O)Nc3ccccc3)cc3ccccc23)c([N+](=O)[O-])c1 | > 100 | > 100 | – | > 100 | > 100 | > 100 | > 100 | > 100 | > 100 | > 100 | –
10 | C/C(=C/CC[C@]1(CO)CC[C@]2(CO)[C@H](CC[C@@H]3[C@@]4(C)CC[C@H](OC5OCC(O)C(O)C5OC5OC(CO)C(O)C(O)C5O)C(C)(C)[C@@H]4CC[C@]32C)[C@H]1O)CO (stereo not given in full) | > 100 | > 100 | > 100 | > 100 | > 100 | > 100 | > 100 | > 100 | > 100 | > 100 | –
11 | CCCc1ccc(NCc2cc(OC)c(OC)c(OC)c2)cc1 | 34.3 | 98.6 | 63.3 | > 100 | – | > 100 | 94.8 | 75.8 | – | > 100 | 17.3
12 | Cc1ccc(/C(O)=C/C(=O)C(=O)NN=C(c2ccccc2)c2ccccc2)cc1 | – | > 100 | > 100 | > 100 | > 100 | – | > 100 | > 100 | > 100 | > 100 | –
13 | CC(C)(CC(O)C#N)/[N+]([O-])=[N+](\[O-])C(C)(C)CC(O)C#N (stereo not given) | 35.4 | > 100 | – | > 100 | 36.9 | 37.9 | 76.2 | 41.9 | 34.1 | > 100 | –
14 | COc1ccc(-n2cnc3c(NC(CCSC)C(=O)O)ncnc32)cc1 (stereo not given) | > 100 | > 100 | – | > 100 | > 100 | > 100 | > 100 | > 100 | > 100 | > 100 | –
15 | CC(C)C1=CC23CCC4C(C)(C(=O)O)CCCC4(C)C2CC1C1C(=O)N(c2ccc(C(=O)O)cc2)C(=O)C13 (stereo not given) | > 100 | – | > 100 | > 100 | > 100 | > 100 | > 100 | > 100 | > 100 | > 100 | –
16 | O=C1C[C@@H](c2ccccc2)O[C@@H](c2ccccc2)C1 | – | – | > 100 | > 100 | > 100 | > 100 | > 100 | > 100 | > 100 | > 100 | –
17 | c1ccc(CSCCc2ccncc2)cc1 | > 100 | > 100 | > 100 | > 100 | > 100 | > 100 | – | > 100 | > 100 | > 100 | –
18 | CCOC(=O)[C@H](Cc1ccc(O)cc1)N=C1[C@H]2CCC[C@]1(O)[C@@](C)([N+](=O)[O-])C2 | > 100 | > 100 | > 100 | > 100 | > 100 | – | – | > 100 | > 100 | > 100 | –
19 | c1ccc2c3c([nH]c2c1)C1CCCN1CC3 (stereo not given) | > 10 | > 10 | > 10 | – | > 10 | > 10 | > 10 | > 10 | > 10 | > 10 | –
20 | CCN(c1cccc(NC(=S)Nc2ccccc2N(CC)c2cc(-c3ccccc3)no2)c1)c1cc(-c2ccccc2)no1 | > 100 | – | > 100 | > 100 | > 100 | > 100 | > 100 | > 100 | > 100 | > 100 | –
21 | O=[As](O)(O)c1ccc(N=Nc2ccc(O)cc2)cc1 | > 100 | > 100 | – | > 100 | > 100 | > 100 | > 100 | > 100 | > 100 | > 100 | –
22 | COC12c3ccccc3-c3ccccc3C1[C@H]1C(=O)OC(=O)[C@H]12 (stereo not given in full) | > 10 | > 10 | > 10 | – | > 10 | > 10 | > 10 | > 10 | > 10 | > 10 | –
23 | COC(=O)C1=C(OC(=O)c2ccccc2)C(C(=O)OC)[C@]2(O)[C@@H](C(=O)OC)[C@H]1C[C@@H](c1ccccc1)[C@@H]2C(=O)OC (stereo not given in full) | – | 64.1 | 14.6 | 34.5 | 9.57 | 52 | – | 27.3 | 40.1 | 41.7 | –
